Measurements reported in PMC8333425, “Discovery of a dual Ras and ARF6 inhibitor from a GPCR endocytosis screen” (Nature Communications, 2021).

Columns and labels:
Test in all cases: KINOMEscan kinase binding assay
[1] = target: T1, 384 kinases from the human genome (Homo sapiens, UniProt O00750); settings: kinase PIK3C2B (Entrez PIK3C2B)
T1 construct: purchased Eurofin/DiscoverX
Summary of the method: (§1)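 A panel of 384 human kinases was profiled by KINOMEscan binding in the presence of 10 µM compound. Kinase–ligand binding was given as percent of DMSO control, averaged from duplicates in a single run, with an S(10) selectivity score.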

[2] = target: T2, 384 kinases from the human genome (Homo sapiens, UniProt O15146); settings: kinase MUSK (Entrez MUSK)
T2 construct: purchased Eurofin/DiscoverX
Summary of the method: as §1

[3] = target: T3, 384 kinases from the human genome (Homo sapiens, UniProt O15197); settings: kinase EPHB6 (Entrez EPHB6)
T3 construct: purchased Eurofin/DiscoverX
Summary of the method: as §1

[4] = target: T4, 384 kinases from the human genome (Homo sapiens, UniProt O60285); settings: kinase ARK5 (Entrez NUAK1)
T4 construct: purchased Eurofin/DiscoverX
Summary of the method: as §1

[5] = target: T5, 384 kinases from the human genome (Homo sapiens, UniProt P09619)
T5 construct: purchased Eurofin/DiscoverX
T5 sequence (P09619 33-1106): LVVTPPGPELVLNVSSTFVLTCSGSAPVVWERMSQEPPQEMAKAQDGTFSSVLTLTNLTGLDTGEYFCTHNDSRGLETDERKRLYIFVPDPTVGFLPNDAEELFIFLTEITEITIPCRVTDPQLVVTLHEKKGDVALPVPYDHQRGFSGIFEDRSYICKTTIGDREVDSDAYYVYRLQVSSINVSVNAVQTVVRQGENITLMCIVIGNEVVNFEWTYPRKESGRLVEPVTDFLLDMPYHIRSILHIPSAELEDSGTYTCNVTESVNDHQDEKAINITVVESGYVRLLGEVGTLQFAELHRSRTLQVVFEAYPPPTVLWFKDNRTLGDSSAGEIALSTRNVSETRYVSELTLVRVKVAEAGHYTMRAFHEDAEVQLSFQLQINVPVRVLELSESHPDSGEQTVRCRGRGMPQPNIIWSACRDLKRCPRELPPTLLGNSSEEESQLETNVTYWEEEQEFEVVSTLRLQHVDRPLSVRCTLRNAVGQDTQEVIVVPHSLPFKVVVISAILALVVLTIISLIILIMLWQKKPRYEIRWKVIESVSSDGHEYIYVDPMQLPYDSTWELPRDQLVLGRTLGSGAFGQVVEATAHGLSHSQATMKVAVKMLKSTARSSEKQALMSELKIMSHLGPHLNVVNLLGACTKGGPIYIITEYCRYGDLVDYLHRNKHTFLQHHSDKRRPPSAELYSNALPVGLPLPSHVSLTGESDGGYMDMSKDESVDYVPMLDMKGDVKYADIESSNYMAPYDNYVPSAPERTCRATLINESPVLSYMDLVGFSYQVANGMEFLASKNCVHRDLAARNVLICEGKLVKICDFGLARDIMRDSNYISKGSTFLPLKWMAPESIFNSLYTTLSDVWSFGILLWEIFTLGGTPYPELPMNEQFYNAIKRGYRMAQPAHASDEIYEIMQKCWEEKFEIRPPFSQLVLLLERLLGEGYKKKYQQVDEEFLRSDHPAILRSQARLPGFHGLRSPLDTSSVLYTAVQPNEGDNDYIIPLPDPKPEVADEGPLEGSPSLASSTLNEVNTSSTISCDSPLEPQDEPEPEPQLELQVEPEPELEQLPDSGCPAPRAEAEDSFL
Summary of the method: as §1

[6] = target: T6, 384 kinases from the human genome (Homo sapiens, UniProt P15735); settings: kinase PHKG2 (Entrez PHKG2)
T6 construct: purchased Eurofin/DiscoverX
T6 sequence (P15735 whole entry): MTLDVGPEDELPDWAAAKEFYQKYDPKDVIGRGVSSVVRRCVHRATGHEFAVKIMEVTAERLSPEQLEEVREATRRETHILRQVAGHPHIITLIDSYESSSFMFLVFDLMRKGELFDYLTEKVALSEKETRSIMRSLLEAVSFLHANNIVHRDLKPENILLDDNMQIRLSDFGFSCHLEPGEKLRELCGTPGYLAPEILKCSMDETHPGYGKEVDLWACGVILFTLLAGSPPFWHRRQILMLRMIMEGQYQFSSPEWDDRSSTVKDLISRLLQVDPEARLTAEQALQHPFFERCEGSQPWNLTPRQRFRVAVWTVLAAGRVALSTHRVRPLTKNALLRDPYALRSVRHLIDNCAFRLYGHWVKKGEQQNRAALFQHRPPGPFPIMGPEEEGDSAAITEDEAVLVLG
Summary of the method: as §1

[7] = target: T7, 384 kinases from the human genome (Homo sapiens, UniProt P17948); settings: kinase FLT1 (Entrez FLT1)
T7 construct: purchased Eurofin/DiscoverX
Summary of the method: as §1

[8] = target: T8, 384 kinases from the human genome (Homo sapiens, UniProt P20794); settings: kinase MAK (Entrez MAK)
T8 construct: purchased Eurofin/DiscoverX
Summary of the method: as §1

[9] = target: T9, 384 kinases from the human genome (Homo sapiens, UniProt P27448); settings: kinase MARK3 (Entrez MARK3)
T9 construct: purchased Eurofin/DiscoverX
Summary of the method: as §1

[10] = target: T10, 384 kinases from the human genome (Homo sapiens, UniProt P49759); settings: kinase CLK1 (Entrez CLK1)
T10 construct: purchased Eurofin/DiscoverX
T10 sequence (P49759 whole entry): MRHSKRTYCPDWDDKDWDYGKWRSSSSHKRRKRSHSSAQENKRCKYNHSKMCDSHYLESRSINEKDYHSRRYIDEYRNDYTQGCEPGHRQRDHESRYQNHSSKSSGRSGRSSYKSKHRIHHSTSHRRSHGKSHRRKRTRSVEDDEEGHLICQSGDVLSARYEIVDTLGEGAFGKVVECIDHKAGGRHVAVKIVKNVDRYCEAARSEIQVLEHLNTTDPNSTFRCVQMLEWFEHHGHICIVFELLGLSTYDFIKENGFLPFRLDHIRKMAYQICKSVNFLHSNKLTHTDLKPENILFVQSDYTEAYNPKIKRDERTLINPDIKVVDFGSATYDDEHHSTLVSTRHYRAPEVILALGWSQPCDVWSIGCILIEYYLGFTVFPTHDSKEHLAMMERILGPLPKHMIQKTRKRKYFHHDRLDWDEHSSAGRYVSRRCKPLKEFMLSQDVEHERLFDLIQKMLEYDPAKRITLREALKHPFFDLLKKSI
Summary of the method: as §1

[11] = target: T11, 384 kinases from the human genome (Homo sapiens, UniProt P51617); settings: kinase IRAK1 (Entrez IRAK1)
T11 construct: purchased Eurofin/DiscoverX
T11 sequence (P51617 whole entry): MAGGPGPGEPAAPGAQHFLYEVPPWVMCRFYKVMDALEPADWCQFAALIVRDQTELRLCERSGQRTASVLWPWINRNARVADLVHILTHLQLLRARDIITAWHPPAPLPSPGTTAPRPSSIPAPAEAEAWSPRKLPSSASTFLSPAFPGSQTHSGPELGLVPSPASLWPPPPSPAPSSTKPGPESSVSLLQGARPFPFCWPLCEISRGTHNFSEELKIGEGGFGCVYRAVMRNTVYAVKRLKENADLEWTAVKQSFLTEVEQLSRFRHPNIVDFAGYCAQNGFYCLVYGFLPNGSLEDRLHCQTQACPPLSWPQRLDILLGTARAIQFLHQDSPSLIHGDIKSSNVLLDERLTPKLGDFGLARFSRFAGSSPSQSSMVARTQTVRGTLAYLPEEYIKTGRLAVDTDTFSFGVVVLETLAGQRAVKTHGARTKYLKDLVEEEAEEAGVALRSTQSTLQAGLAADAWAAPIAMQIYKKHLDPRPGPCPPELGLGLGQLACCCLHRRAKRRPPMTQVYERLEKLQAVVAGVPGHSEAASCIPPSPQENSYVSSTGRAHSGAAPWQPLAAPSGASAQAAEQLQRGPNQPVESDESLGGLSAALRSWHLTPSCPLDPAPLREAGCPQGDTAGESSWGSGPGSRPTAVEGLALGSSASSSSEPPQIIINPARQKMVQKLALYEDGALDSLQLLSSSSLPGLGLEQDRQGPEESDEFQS
Summary of the method: as §1

[12] = target: T12, 384 kinases from the human genome (Homo sapiens, UniProt P51955); settings: kinase NEK2 (Entrez NEK2)
T12 construct: purchased Eurofin/DiscoverX
Summary of the method: as §1

[13] = target: T13, 384 kinases from the human genome (Homo sapiens, UniProt Q05397); settings: kinase FAK (Entrez PTK2)
T13 construct: purchased Eurofin/DiscoverX
Summary of the method: as §1

[14] = target: T14, 384 kinases from the human genome (Homo sapiens, UniProt Q13163); settings: kinase MEK5 (Entrez MAP2K5)
T14 construct: purchased Eurofin/DiscoverX
Summary of the method: as §1

[15] = target: T15, 384 kinases from the human genome (Homo sapiens, UniProt Q13188); settings: kinase MST2 (Entrez STK3)
T15 construct: purchased Eurofin/DiscoverX
Summary of the method: as §1

[16] = target: T16, 384 kinases from the human genome (Homo sapiens, UniProt Q6DT37); settings: kinase DMPK2 (Entrez CDC42BPG)
T16 construct: purchased Eurofin/DiscoverX
Summary of the method: as §1

[17] = target: T17, 384 kinases from the human genome (Homo sapiens, UniProt Q6PHR2); settings: kinase ULK3 (Entrez ULK3)
T17 construct: purchased Eurofin/DiscoverX
T17 sequence (Q6PHR2 whole entry): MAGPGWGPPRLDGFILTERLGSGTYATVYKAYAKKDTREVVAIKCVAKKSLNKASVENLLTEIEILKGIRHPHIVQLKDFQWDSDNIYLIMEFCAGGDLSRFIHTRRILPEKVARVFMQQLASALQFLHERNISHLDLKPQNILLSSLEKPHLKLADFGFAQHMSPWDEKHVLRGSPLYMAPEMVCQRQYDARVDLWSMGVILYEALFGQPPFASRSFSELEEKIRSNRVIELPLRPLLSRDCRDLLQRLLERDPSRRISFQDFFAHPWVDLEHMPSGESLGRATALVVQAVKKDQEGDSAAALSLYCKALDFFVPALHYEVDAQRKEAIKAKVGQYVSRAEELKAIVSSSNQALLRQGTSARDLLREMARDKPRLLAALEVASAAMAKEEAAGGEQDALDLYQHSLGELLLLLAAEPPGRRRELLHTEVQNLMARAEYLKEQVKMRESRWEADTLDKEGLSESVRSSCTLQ
Summary of the method: as §1

[18] = target: T18, 384 kinases from the human genome (Homo sapiens, UniProt Q6ZWH5); settings: kinase NEK10 (Entrez NEK10)
T18 construct: purchased Eurofin/DiscoverX
Summary of the method: as §1

[19] = target: T19, 384 kinases from the human genome (Homo sapiens, UniProt Q8NI60); settings: kinase ADCK3 (Entrez CABC1)
T19 construct: purchased Eurofin/DiscoverX
T19 sequence (Q8NI60 163-647): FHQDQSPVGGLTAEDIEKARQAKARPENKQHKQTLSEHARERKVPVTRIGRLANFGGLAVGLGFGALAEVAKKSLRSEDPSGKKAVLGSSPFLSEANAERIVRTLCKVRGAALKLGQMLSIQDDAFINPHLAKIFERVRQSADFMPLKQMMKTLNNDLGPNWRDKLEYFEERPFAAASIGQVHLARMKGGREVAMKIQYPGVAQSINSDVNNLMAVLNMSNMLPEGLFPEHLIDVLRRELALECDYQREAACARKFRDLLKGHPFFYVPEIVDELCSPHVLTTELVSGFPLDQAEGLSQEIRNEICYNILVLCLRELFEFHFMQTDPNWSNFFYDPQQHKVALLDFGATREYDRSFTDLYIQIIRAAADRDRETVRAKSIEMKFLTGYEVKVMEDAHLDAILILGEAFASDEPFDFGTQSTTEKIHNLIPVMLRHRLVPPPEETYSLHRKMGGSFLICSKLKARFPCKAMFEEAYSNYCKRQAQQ
Summary of the method: as §1

[20] = target: T20, 384 kinases from the human genome (Homo sapiens, UniProt Q9BQI3); settings: kinase EIF2AK1 (Entrez EIF2AK1)
T20 construct: purchased Eurofin/DiscoverX
Summary of the method: as §1

[21] = target: T21, 384 kinases from the human genome (Homo sapiens, UniProt Q9NRH2); settings: kinase SNRK (Entrez SNRK)
T21 construct: purchased Eurofin/DiscoverX
Summary of the method: as §1

[22] = target: T22, 384 kinases from the human genome (Homo sapiens, UniProt Q9UBE8); settings: kinase NLK (Entrez NLK)
T22 construct: purchased Eurofin/DiscoverX
Summary of the method: as §1

[23] = target: T23, 384 kinases from the human genome (Homo sapiens, UniProt Q9UEE5); settings: kinase DRAK1 (Entrez STK17A)
T23 construct: purchased Eurofin/DiscoverX
Summary of the method: as §1

[24] = target: T24, 384 kinases from the human genome (Homo sapiens, UniProt Q9UHD2); settings: kinase TBK1 (Entrez TBK1)
T24 construct: purchased Eurofin/DiscoverX
Summary of the method: as §1

[25] = target: T25, 384 kinases from the human genome (Homo sapiens, UniProt Q9UKE5); settings: kinase TNIK (Entrez TNIK)
T25 construct: purchased Eurofin/DiscoverX
T25 sequence (Q9UKE5 whole entry): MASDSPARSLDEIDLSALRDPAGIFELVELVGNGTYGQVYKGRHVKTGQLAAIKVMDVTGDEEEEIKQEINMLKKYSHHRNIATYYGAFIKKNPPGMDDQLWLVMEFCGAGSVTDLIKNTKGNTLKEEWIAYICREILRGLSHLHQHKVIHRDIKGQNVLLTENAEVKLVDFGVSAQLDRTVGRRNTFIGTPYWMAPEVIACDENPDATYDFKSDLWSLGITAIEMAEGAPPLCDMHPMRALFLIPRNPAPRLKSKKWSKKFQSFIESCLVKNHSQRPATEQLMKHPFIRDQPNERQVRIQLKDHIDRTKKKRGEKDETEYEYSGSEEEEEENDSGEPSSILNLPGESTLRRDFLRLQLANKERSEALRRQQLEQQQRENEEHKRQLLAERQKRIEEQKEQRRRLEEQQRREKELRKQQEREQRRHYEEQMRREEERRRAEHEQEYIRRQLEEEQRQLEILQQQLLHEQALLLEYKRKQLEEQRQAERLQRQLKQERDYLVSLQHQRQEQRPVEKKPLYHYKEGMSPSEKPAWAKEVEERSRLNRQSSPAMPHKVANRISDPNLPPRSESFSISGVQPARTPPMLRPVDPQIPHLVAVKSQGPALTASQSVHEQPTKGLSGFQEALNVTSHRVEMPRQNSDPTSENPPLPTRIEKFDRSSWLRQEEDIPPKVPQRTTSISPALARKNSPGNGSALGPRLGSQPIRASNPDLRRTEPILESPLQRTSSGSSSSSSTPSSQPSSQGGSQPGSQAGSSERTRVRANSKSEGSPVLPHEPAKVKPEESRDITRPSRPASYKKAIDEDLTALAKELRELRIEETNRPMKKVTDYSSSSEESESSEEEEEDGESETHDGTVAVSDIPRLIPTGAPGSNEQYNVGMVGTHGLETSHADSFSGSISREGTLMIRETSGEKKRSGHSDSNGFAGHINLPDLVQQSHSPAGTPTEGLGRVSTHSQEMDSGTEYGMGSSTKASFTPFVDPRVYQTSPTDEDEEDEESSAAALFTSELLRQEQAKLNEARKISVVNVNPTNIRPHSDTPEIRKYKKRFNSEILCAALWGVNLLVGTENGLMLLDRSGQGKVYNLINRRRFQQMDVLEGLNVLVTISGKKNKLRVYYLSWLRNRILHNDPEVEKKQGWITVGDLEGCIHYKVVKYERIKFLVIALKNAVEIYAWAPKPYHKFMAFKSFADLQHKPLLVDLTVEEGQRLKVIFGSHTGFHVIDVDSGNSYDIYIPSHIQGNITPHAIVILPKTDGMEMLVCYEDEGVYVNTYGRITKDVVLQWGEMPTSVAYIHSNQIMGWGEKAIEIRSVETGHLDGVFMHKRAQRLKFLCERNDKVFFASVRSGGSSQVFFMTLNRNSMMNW
Summary of the method: as §1

[26] = target: T26, 384 kinases from the human genome (Homo sapiens, UniProt Q9UQ88); settings: kinase CDC2L2 (Entrez CDC2L2)
T26 construct: purchased Eurofin/DiscoverX
Summary of the method: as §1

CC(C)C(=O)N1CCN(c2ccc(NC(=O)c3cc4ccccc4o3)cc2Cl)CC1 [Compound 21]
Percent Control [1]: 98%
Percent Control [2]: 96%
Percent Control [3]: 98%
Percent Control [4]: 97%
PDGFRB binding to its ligand affected ([5]; 10 µM of 21, compared to DMSO (100%)): more than 90%
Percent Control ([5]; kinase PDGFRB (Entrez PDGFRB)): 2.6%
Percent Control [6]: 100%
Percent Control [7]: 87%
Percent Control [8]: 84%
Percent Control [9]: 100%
Percent Control [10]: 98%
Percent Control [11]: 99%
Percent Control [12]: 91%
Percent Control [13]: 100%
Percent Control [14]: 72%
Percent Control [15]: 95%
Percent Control [16]: 77%
Percent Control [17]: 87%
Percent Control [18]: 95%
Percent Control [19]: 64%
Percent Control [20]: 98%
Percent Control [21]: 78%
Percent Control [22]: 100%
Percent Control [23]: 93%
Percent Control [24]: 100%
Percent Control [25]: 57%
Percent Control [26]: 95%
